From patent US12145947B2, “Pyrimidine based modulators and uses thereof” (Quanta Therapeutics, Inc., priority 2022, dated 2024)

Columns and labels:
[1] = tested on: GP2D cells (KRAS G12D), phospho-ERK; experiment: pERK In Cell Western (ICW) assay, GP2D cells; format: cell-based; conditions: Table 4, 3 hours
Summary of the method: (§1)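 GP2D (10,000 cells/well) and AGS (5,000 cells/well) cells were treated for 3 h at 37 °C with a 10-point, ½-log dilution series (top […]). They were then fixed and immunostained for phospho-ERK. pERK signal was normalised to DRAQ5 and expressed as % of DMSO, with IC50 from a 4-parameter fit.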

[2] = tested on: AGS cells (KRAS G12D), phospho-ERK; experiment: pERK In Cell Western (ICW) assay (Method B), AGS cells; format: cell-based; conditions: Homo sapiens, Table 4, pERK, 3 hours, read-out: ICW-AGS
Summary of the method: as §1

Structure (SMILES) | IC50 [1] [nM] | IC50 [2] [nM]
N#Cc1c(N2C[C@H]3CC[C@@H](C2)N3)nc(OCC2(CN3C[C@@H]4C[C@H]3CO4)CC2)nc1N1CC2(CCc3sc(N)c(C#N)c32)C1 [Compound 89, 2-amino-1′-[5-cyano-6-[(1R,5S)-3,8-diazabicyclo[3.2.1]octan-3-yl]-2-[[1-[[(1S,4S)-2-oxa-5-azabicyclo[2.2.1]heptan-5-yl]methyl]cyclopropyl]methoxy]pyrimidin-4-yl]spiro[5,6-dihydrocyclopenta[b]thiophene-4,3′-azetidine]-3-carbonitrile] | 10 to 100 | 10 to 100
N#Cc1c(N2CCCCCC2)nc(OC[C@@]23CCCN2C[C@H](F)C3)nc1N1CC2(CCc3sc(N)c(C#N)c32)C1 [Compound 19, 2-amino-1′-[6-(azepan-1-yl)-5-cyano-2-[[(2R)-2-fluoro-1,2,3,5,6,7-hexahydropyrrolizin-8-yl]methoxy]pyrimidin-4-yl]spiro[5,6-dihydrocyclopenta[b]thiophene-4,3′-azetidine]-3-carbonitrile] | 100 to 1000 | 1000 to 10000
Cc1nc(-c2nn3c(c2Cl)CN(c2nc(OC[C@@]45CCCN4C[C@H](F)C5)nc(N4CC5(CCc6sc(N)c(C#N)c65)C4)c2C#N)CCC3)no1 [Compound 46, 2-amino-1′-[6-[3-chloro-2-(5-methyl-1,2,4-oxadiazol-3-yl)-4,6,7,8-tetrahydropyrazolo[1,5-a][1,4]diazepin-5-yl]-5-cyano-2-[[(2R,8S)-2-fluoro-1,2,3,5,6,7-hexahydropyrrolizin-8-yl]methoxy]pyrimidin-4-yl]spiro[5,6-dihydrocyclopenta[b]thiophene-4,3′-azetidine]-3-carbonitrile] | 10 to 100 | 100 to 1000
CO[C@H]1CN(CC2(COc3nc(N4C[C@H]5CC[C@@H](C4)N5)c(C#N)c(N4CC5(CCc6sc(N)c(C#N)c65)C4)n3)CC2)C[C@@H]1F [Compound 81, 2-amino-1′-[5-cyano-6-[(1R,5S)-3,8-diazabicyclo[3.2.1]octan-3-yl]-2-[[1-[[(3S,4S)-3-fluoro-4-methoxy-pyrrolidin-1-yl]methyl]cyclopropyl]methoxy]pyrimidin-4-yl]spiro[5,6-dihydrocyclopenta[b]thiophene-4,3′-azetidine]-3-carbonitrile] | 10 to 100 | 100 to 1000
N#Cc1c(N)sc2c1C1(CC2)CN(c2nc(OC[C@@]34CCCN3C[C@H](F)C4)nc(N3CCC[C@]4(C3)NC(=O)NC4=O)c2F)C1 [Compound 7, 2-amino-1′-[6-[(5R)-2,4-dioxo-1,3,9-triazaspiro[4.5]decan-9-yl]-5-fluoro-2-[[(2R,8S)-2-fluoro-1,2,3,5,6,7-hexahydropyrrolizin-8-yl]methoxy]pyrimidin-4-yl]spiro[5,6-dihydrocyclopenta[b]thiophene-4,3′-azetidine]-3-carbonitrile] | 100 to 1000 | 1000 to 10000
CC(=O)c1nn2c(c1Cl)CN(c1nc(OC[C@@]34CCCN3C[C@H](F)C4)nc(N3CC4(CCc5sc(N)c(C#N)c54)C3)c1C#N)CCC2 [Compound 13, 1′-[6-(2-acetyl-3-chloro-4,6,7,8-tetrahydropyrazolo[1,5-a][1,4]diazepin-5-yl)-5-cyano-2-[[(2R,8S)-2-fluoro-1,2,3,5,6,7-hexahydropyrrolizin-8-yl]methoxy]pyrimidin-4-yl]-2-amino-spiro[5,6-dihydrocyclopenta[b]thiophene-4,3′-azetidine]-3-carbonitrile] | 1 to 10 | 10 to 100
N#Cc1c(N2CC3(CCc4sc(N)c(C#N)c43)C2)nc(OC[C@@]23CCCN2C[C@H](F)C3)nc1N1CCC[C@]2(C1)NC(=O)NC2=O [Compound 11, 2-amino-1′-[5-cyano-6-[(5R)-2,4-dioxo-1,3,9-triazaspiro[4.5]decan-9-yl]-2-[[(2R,8S)-2-fluoro-1,2,3,5,6,7-hexahydropyrrolizin-8-yl]methoxy]pyrimidin-4-yl]spiro[5,6-dihydrocyclopenta[b]thiophene-4,3′-azetidine]-3-carbonitrile] | 1000 to 10000 | 1000 to 10000
